{
  "source": "paper PMC7993833",
  "about": "“EDP-938, a novel nucleoprotein inhibitor of respiratory syncytial virus, demonstrates potent antiviral activities in vitro and in a non-human primate model” (PLoS Pathogens, 2021)",
  "key": {"RSV-A2": {"test_system": "RSV-A2", "test": "RT-qPCR assay, RSV-A2 in HEp-2 cells", "format": "cell-based", "settings": "human respiratory syncytial virus", "procedure": "HEp-2, Vero, and BHK were seeded at 8,000 cells per well (cpw) in growth medium (Dulbecco’s Modified Eagle Medium (DMEM) with 1% GlutaMAX, 1% Penicillin/Streptomycin (P/S), 1% Non-Essential Amino Acids (NEAA), 10% Fetal Bovine Serum (FBS)) or (Minimum Essential Medium (MEM) with 10% FBS, 1% NEAA, 1% P/S) or (Eagle’s Minimum Essential Medium with L-Glutamine, with 10% FBS, 1% P/S) respectively. A549 seeded at 3,000 cpw in F-12K Kaighn’s Modification nutrient mixture with 10% FBS, 1% NEAA, 1% P/S. Cells seeded at time of infection in 96-well plates, final well volume 100μL. Compounds suspended in DMSO, serially diluted and added to wells at 0.5% final DMSO concentration. Viral stocks stabilized with 25% sucrose, previously titered using plaque assay, were added at desired MOI. Sucrose added to cells-only control wells to match percent added with virus. Unless otherwise noted, RSV-A strains were tested at 0.1 MOI and incubated for 5 days in a 37°C, 5% CO2 humidified incubator, and RSV-B at 0.5 MOI for 6 days. Cytopathic effect (CPE) determined using ATPlite (Perkin Elmer) measured with Envision luminometer. For RT-qPCR, RNA was extracted from whole well using Ambion RNAqueous-96 Automated Kit, and RT-qPCR run using Applied Biosystems TaqMan RNA-to-CT 1-Step Kit. […] All EC50s were calculated using the XLFit four-parameter logistic model 200 in Microsoft Excel."}, "RSV-A Long [1]": {"test_system": "RSV-A Long", "test": "RT-qPCR assay, RSV-A Long in Vero cells", "format": "cell-based", "settings": "human respiratory syncytial virus"}, "RSV-A Long [2]": {"test_system": "RSV-A Long", "test": "RT-qPCR assay, RSV-A Long in primary cotton rat lung cells", "format": "cell-based", "settings": "human respiratory syncytial virus, 120 h, RSV-A Long MOI 0.1, 5 days"}, "[3]": {"test_system": "RSV-A and RSV-B laboratory strains", "test": "CPE assay, RSV laboratory strains across primate cell lines", "format": "cell-based", "settings": "human respiratory syncytial virus, in Primates, read-out: EC50 values, inhibition of CPE (range over strains and cells)", "procedure": "The activity of EDP-938 against both RSV-A and RSV-B was evaluated in vitro against multiple laboratory strains commonly used for antiviral screens in HEp-2 cells, human adenocarcinomic alveolar basal epithelial cells (A549), monkey kidney-derived cells (Vero), and Baby Hamster Kidney cells (BHK). Serial dilutions of the compound were added to cells infected with RSV-A at a MOI of 0.1 or RSV-B at an MOI of 0.5 and treated for 5 or 6 days, respectively.\n(§1) HEp-2, Vero, and BHK were seeded at 8,000 cells per well (cpw) in growth medium (Dulbecco’s Modified Eagle Medium (DMEM) with 1% GlutaMAX, 1% Penicillin/Streptomycin (P/S), 1% Non-Essential Amino Acids (NEAA), 10% Fetal Bovine Serum (FBS)) or (Minimum Essential Medium (MEM) with 10% FBS, 1% NEAA, 1% P/S) or (Eagle’s Minimum Essential Medium with L-Glutamine, with 10% FBS, 1% P/S) respectively. A549 seeded at 3,000 cpw in F-12K Kaighn’s Modification nutrient mixture with 10% FBS, 1% NEAA, 1% P/S. Cells seeded at time of infection in 96-well plates, final well volume 100μL. Compounds suspended in DMSO, serially diluted and added to wells at 0.5% final DMSO concentration. […] Cytopathic effect (CPE) determined using ATPlite (Perkin Elmer) measured with Envision luminometer. […] All EC50s were calculated using the XLFit four-parameter logistic model 200 in Microsoft Excel."}, "HEK-293 cells": {"test_system": "HEK-293 cells", "test": "Cytotoxicity (ATPlite) in HEK-293 cells", "format": "cell-based, human", "settings": "at up to 50 μM, 3 days", "procedure": "(§2) HEp-2, A549, and CHO cells were seeded at 3,000 cpw in their respective growth medium. CHO growth medium used was RPMI medium 1640 with 10% FBS, 1% P/S, 1% GlutaMAX. HEK-293 cells seeded at 10,000 cpw in DMEM growth medium. Undifferentiated HBECs were seeded in collagen-coated 96-well plates at 7,500 cpw in appropriate growth medium. Compound added and incubated for 3 days (4 days for HBECs) as described above. Plates read with ATPlite and CC50 calculated as EC50s as described above. SI = CC50/EC50 within a cell line."}, "HBEC": {"test_system": "HBEC", "test": "Cytotoxicity (ATPlite) in primary HBECs", "format": "cell-based, human", "procedure": "as §2"}, "[4]": {"test_system": "broad panel of other viruses", "format": "cell-based"}, "RSV-A clinical isolates [5]": {"test_system": "RSV-A clinical isolates", "test": "Susceptibility of USA-derived RSV-A clinical isolates", "format": "cell-based", "settings": "human respiratory syncytial virus", "procedure": "Serial dilutions of the compound were added to cells infected with RSV-A isolates at an MOI of 0.1 (except for isolate 629-9-2 at an MOI of 0.01) or RSV-B isolates at an MOI of 0.5 (expect for isolate 629-24/2007 at an MOI of 0.0044) and were treated for 5 or 6 days, respectively. […] This is consistent with the fact that the viral N protein, which is the putative target of the antiviral effect of EDP-938, is the most conserved RSV protein [11].\nas §1, with “Excel. […]” for “Excel.”"}, "RSV-A clinical isolates [6]": {"test_system": "RSV-A clinical isolates", "test": "RSV Virospot reduction assay (ViroClinics), RSV-A isolates from the Netherlands", "format": "cell-based", "settings": "human respiratory syncytial virus, 10 RSV-A strains from the Netherlands", "procedure": "To further expand testing against clinical isolates, the compound was assayed against a panel of 10 RSV-A and 10 RSV-B strains mainly isolated from children of age 2–200 weeks in the Netherlands.\nRSV clinical isolates were obtained from Baylor University and Medical College of Wisconsin. MOI of 0.1 used for all clinical isolates except RSV-A 629-9-2 (0.01) and RSV-B 629-24/2007 (0.0044) due to low titer. Virospot reduction assay was run by ViroClinics (Rotterdam, the Netherlands) against 20 additional RSV clinical isolates."}, "RSV-A Long [7]": {"test_system": "RSV-A Long", "test": "Time-of-addition study, CPE endpoint", "format": "cell-based, respiratory syncytial virus", "settings": "for EC50: human respiratory syncytial virus, read-out: EC50 for cytoprotection", "procedure": "In order to help determine which step of the viral life cycle EDP-938 blocks multiple in vitro time-of-addition studies were performed. In the first study, EDP-938 was administered to cells infected with RSV-A Long at a MOI of 0.1 at 2 hours pre-infection (-2) or 2, 6, or 24 hours post-infection (hpi), and viral CPE evaluated 5 days later. […] A second time-of-addition study explored the ability of EDP-938 to protect not just a population experiencing a spreading infection, but individual cells already infected with RSV. Using a MOI of 3, which infects approximately 95% of all cells, virus was cold-adsorbed to the cells for 1 hour to synchronize infection before transfer to 37°C to induce fusion (marking the 0 hpi time point). Compound was added at times indicated and a 24 hpi RT-qPCR endpoint was employed to constrain viral replication cycle to a single complete cycle.\nAs above, but 8,000 HEp-2 cpw seeded 1-day pre-infection. 2h pre-infection compound or media added. Plates incubated 2h. Viral infection at 0.1 MOI, incubated 1h. Viral inoculum removed, cells washed, and media replaced with compound for -2h sample. Compound added at 2h, 6h, and 24h post-infection to appropriate plates. 5dpi cell viability calculated as described above."}},
  "data": [
    {"compound": "O=C1Nc2ccccc2C(c2ccccc2)=N[C@@H]1Nc1nnc(-c2ncc(C(F)(F)F)cc2N2CCOCC2)o1", "note": "[EDP-938]", "values": [
      {"measurement": "EC50", "setting": "RSV-A2", "result": "0.059 ± 0.018", "unit": "µM"},
      {"measurement": "EC90", "setting": "RSV-A2", "result": "0.07 ± 0.03", "unit": "µM"},
      {"measurement": "EC50", "setting": "RSV-A Long [1]", "result": "0.079 ± 0.012", "unit": "µM"},
      {"measurement": "EC90", "setting": "RSV-A Long [1]", "result": "0.118 ± 0.025", "unit": "µM"},
      {"measurement": "EC50", "setting": "RSV-A Long [2]", "result": 10.3, "unit": "µM"},
      {"measurement": "EC50", "setting": "[3]", "result": "0.028 to 0.072", "unit": "µM"},
      {"measurement": "cytotoxicity", "setting": "HEK-293 cells", "result": "no significant cytotoxicity"},
      {"measurement": "selectivity index", "setting": "HBEC; HBEC cells, SI = CC50/EC50 within a cell line", "result": "> 2,380"},
      {"measurement": "cytotoxicity", "setting": "HBEC; HBEC, at up to 50 μM, 4 days", "result": "no significant cytotoxicity"},
      {"measurement": "activity against a broad panel of other viruses", "setting": "[4]", "result": "did not demonstrate significant activity"},
      {"measurement": "EC50", "setting": "RSV-A clinical isolates [5]", "result": 0.076, "unit": "µM"},
      {"measurement": "EC50", "setting": "RSV-A clinical isolates [6]", "result": 0.043, "unit": "µM"},
      {"measurement": "EC50", "setting": "RSV-A Long [7]; 120 h, compound addition at -2 h, HEp-2, RSV-A Long MOI 0.1, CPE 5 days", "result": 0.049, "unit": "µM"},
      {"measurement": "EC50", "setting": "RSV-A Long [7]; compound addition at 2 h post-infection", "result": 0.055, "unit": "µM"},
      {"measurement": "EC50", "setting": "RSV-A Long [7]; compound addition at 6 h post-infection", "result": 0.076, "unit": "µM"},
      {"measurement": "EC50", "setting": "RSV-A Long [7]; compound addition at 24 h post-infection", "result": 0.066, "unit": "µM"},
      {"measurement": "cytoprotective activity maintained", "setting": "RSV-A Long [7]; when given up to 24 hpi, RSV-A Long MOI 0.1", "result": "about 80%"}
    ]}
  ]
}
